# Measured values as given in ChEMBL document CHEMBL1150713, “Bioactive stilbenes of Scirpus maritimus” (J Nat Prod, 1987).
# Key:
# [1] = Cytotoxicity against mouse 3PS cells xenografted in mouse at 30 mg/kg relative to control; format: functional
# [2] = test system: Agrobacterium tumefaciens; test: Effect on Agrobacterium tumefaciens-induced crown gall tumor in potato tubers by potato disk assay relative to control; format: functional
# [3] = Toxicity in Artemia salina; format: organism-based; conditions: in vivo
# Spodoptera frugiperda = test: Antifeedant activity against Spodoptera frugiperda assessed as feeding ratio for 5 seconds; format: functional
# [4] = Cytotoxicity against mouse 3PS cells xenografted in mouse at 37 mg/kg relative to control; format: functional
# [5] = Cytotoxicity against mouse 3PS cells xenografted in mouse at 35 mg/kg relative to control; format: functional
# [6] = test system: Agrobacterium tumefaciens; test: Antitumor activity against Agrobacterium tumefaciens-induced crown gall tumor assessed as tumor inhibition in potato tubers by potato disk assay relative to control; format: functional
# [7] = Cytotoxicity against mouse 3PS cells xenografted in mouse at 18 mg/kg relative to control; format: functional
SMILES,T/C [1],Activity [2],LC50 [3],Ratio (Spodoptera frugiperda),T/C [4],T/C [5],inhibition (INH) [6],T/C [7]
Oc1ccc(/C=C/c2cc(O)cc3c2[C@H](c2cc(O)cc(O)c2)[C@@H](c2ccc(O)c(O)c2)O3)cc1 [SCIRPUSIN A],103%,17%,488 µg/mL,1,–,–,–,–
Oc1ccc(/C=C/c2cc(O)cc(O)c2)cc1 [RESVERATROL],–,39%,–,–,100%,–,–,–
Oc1cc(O)cc(/C=C/c2ccc(O)c(O)c2)c1 [PICEATANNOL],–,–,278 µg/mL,0.38,–,131%,17%,–
Oc1cc(O)cc(C2c3c(/C=C/c4ccc(O)c(O)c4)cc(O)cc3OC2c2ccc(O)c(O)c2)c1 (centres undefined) [SCIRPUSIN B],–,–,389 µg/mL,0.23,–,–,40%,99%
